A word on the IC50: it is the midpoint of a concentration-inhibition curve.

In the experiment the target is T1, Prostaglandin G/H synthase 2 (Homo sapiens, UniProt P35354).
T1 sequence (P35354 whole entry): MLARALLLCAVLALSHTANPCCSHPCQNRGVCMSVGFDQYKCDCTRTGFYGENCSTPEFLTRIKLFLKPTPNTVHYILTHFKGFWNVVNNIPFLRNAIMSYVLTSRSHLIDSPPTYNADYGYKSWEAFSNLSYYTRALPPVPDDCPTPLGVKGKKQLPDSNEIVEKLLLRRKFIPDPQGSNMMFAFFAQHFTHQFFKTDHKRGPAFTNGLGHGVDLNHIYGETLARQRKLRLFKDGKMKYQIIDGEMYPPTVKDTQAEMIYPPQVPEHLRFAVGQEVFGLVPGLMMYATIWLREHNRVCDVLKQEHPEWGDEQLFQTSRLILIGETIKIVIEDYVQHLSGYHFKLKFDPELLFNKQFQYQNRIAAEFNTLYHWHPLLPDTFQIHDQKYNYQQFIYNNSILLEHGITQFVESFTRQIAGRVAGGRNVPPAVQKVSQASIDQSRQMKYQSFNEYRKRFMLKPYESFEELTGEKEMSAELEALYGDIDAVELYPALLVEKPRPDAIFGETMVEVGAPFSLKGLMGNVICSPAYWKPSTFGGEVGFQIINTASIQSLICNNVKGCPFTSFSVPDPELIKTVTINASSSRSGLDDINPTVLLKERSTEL
The experiment is described as follows: Inhibition of COX-2 (unknown origin) by enzyme immune assay.

As for `C=C1CC[C@@H]2[C@H](CC2(C)C)C(=C)CC[C@H]1O`, the IC50 amounted to 88 nM.

Values taken from BindingDB's records for PubMed 34479036 (n/a, 2021).
